In patent US20100160332A1, “a2-Adrenoceptor Ligands” (The Provost, Fellows and Scholars of the College of the …, priority 2008, published 2010):
Read-outs that look alike come from different tables or passages of the source.

Key:
[1] = tested on: extracellular NA levels in the PFC; experiment: In-vivo microdialysis, extracellular NA in the PFC of freely moving rats; set-up: species or system rat; conditions: for Emax, extracellular NA levels: local administration by reverse dialysis 1-100 μM in PFC
From the text: The antagonistic properties of derivative 8b in-vitro, were substantiated by testing its effect on noradrenergic transmission in vivo using microdialysis experiments. This technique is a widely accepted method for sampling the extracellular fluid of the brain, allowing the study of different neurotransmitters in the extracellular area where the probe is implanted. This technique has been used to investigate the effect of different compounds on NA concentrations in the PFC, an area widely implicated in depression. The increase of NA concentration in the PFC of freely moving rats after drug administration is accepted as a good predictor for antidepressant activity. In this context, many antidepressants, including the α2-AR antagonist Mirtazapine, are able to increase dialysate levels of NA in the PFC.
Compounds 8b and RX821002 were dissolved in aCSF and perfussed via reverse dialysis at the time indicated by the arrows (every 70 minutes). Data correspond to the mean±standard error mean values from 3 to 5 animals for each group, and are expressed as percentages of the corresponding basal values.
Control rats were administered with the vehicle (saline). Intraperitoneal administration of compound 8b (10 mg/kg) increased NA extracellular concentration by 161±30% in the PFC. Data are given as mean±standard error mean values from 4-5 separate animals for each group and are expressed as percentages of the corresponding basal values. The arrow represents the time of administration of the compound or vehicle.
Microdialysis experiments Male Sprague-Dawley rats (250-300 g) were implanted with a probe in a stereotaxic apparatus under chloral hydrate anaesthesia (400 mg/kg i.p.). The probe was located in the prefrontal cortex (PFC) according to the co-ordinates of the atlas of Paxinos and Watson (AP (anterior to bregma) +2.8 mm, L (lateral from the mid-sagittal suture) +1 mm, DV (ventral from the dura surface) −5 mm). Experiments were performed 20-24 h after the probe implantation and aCSF (148 mM NaCl, 2.7 mM KCl, 1.2 mM CaCl2 and 0.85 mM MgCl2; pH 7.4) was pumped at a flow rate of 1 μl/min (CMA/Microdialysis infusion pump). […] Samples were collected every 35 min and NA concentrations analyzed by HPLC apparatus with amperometric detection (Hewlett-Packard model 1049A) at an oxidizing potential of +650 mV. […] Samples (injection volume 30 μl) were injected and NA analyzed in a run time of 10 min. […] All measures of extracellular NA concentrations are expressed as percentage of the baseline value±s.e.mean. One-way analysis of variance (ANOVA) for control group or two-way ANOVA between control and each treated group was assessed for statistical analysis. […]

[2] = target: T1, α2-ARs (Homo sapiens, UniProt P08913); experiment: [35S]GTPγS binding assay (agonist stimulation) in human brain cortical membranes; assay type: biochemical; conditions: for stimulation of [35S]GTPγS binding (agonist dose-response plot): compound alone
From the text: The α2-ARs are G-protein coupled receptors (GPCRs), and as such, when the endogenous ligand binds to the receptor, a change in the conformation of the G-proteins occurs leading to the exchange of GDP by GTP on the α-subunit, promoting their dissociation into α-GTP and βγ subunits, and resulting in transmembrane signalling. A direct evaluation of this G-protein activity can be made by determining the guanine nucleotide exchange using radiolabelled GTP analogues. The [^35S]GTPγS binding assay constitutes a functional measure of the interaction of the receptor and the G-protein and is a useful tool to distinguish between agonists (increasing the nucleotide binding), inverse agonists (decreasing the nucleotide binding), and neutral antagonists (not affecting the nucleotide binding) of GPCRs.
(§1) Preparation of membranes. Neural membranes (P2 fractions) were prepared from the PFC of human brains obtained at autopsy in the Instituto Vasco de Medicine Legal, Bilbao, Spain. Postmortem human brain samples of each subject (˜1 g) were homogenized using a Teflon-glass grinder (10 up-and-down strokes at 1500 rpm) in 30 volumes of homogenization buffer (1 mM MgCl2, and 5 mM Tris-HCl, pH 7.4) supplemented with 0.25 M sucrose. The crude homogenate was centrifuged for 5 min at 1000×g (4° C.) and the supernatant was centrifuged again for 10 min at 40000×g (4° C.). The resultant pellet was washed twice in 20 volumes of homogenization buffer and recentrifuged in similar conditions. Aliquots of 1 mg protein were stored at −70° C. until assay.
[^35S]GTPγS binding assays. The incubation buffer for measuring [^35S]GTPγS binding to brain membranes contained, in a total volume of 500 μL, 1 mM EGTA, 3 mM MgCl2, 100 mM NaCl, […], 50 mM Tris-HCl at pH 7.4 and 0.5 nM [^35S]GTPγS. Proteins aliquots were thawed and re-suspended in the same buffer. The incubation was started by addition of the membrane suspension (40 μg of membrane proteins) to the previous mixture and was performed at 30° C. for 120 min with shaking. In order to evaluate the influence of the compounds on [^35S]GTPγS binding, 8 concentrations (10^−10 to 10^−3M) of the different compounds were added to the assay. Incubations were terminated by adding 3 mL of ice-cold re-suspension buffer followed by rapid filtration through Whatman GF/C filters pre-soaked in the same buffer. The filters were rinsed twice with 3 mL of ice-cold re-suspension buffer, transferred to vials containing 5 mL. of OptiPhase HiSafe II cocktail (Wallac, UK) and the radioactivity trapped was determined by liquid scintillation spectrometry (Packard 2200CA). […] Non-specific binding of the radioligand was defined as the remaining [^35S]GTPγS binding in the presence of 10 μM unlabelled GTPγS.

[3] = target: T1, α2-ARs; experiment: UK14304 stimulation of [35S]GTPγS binding in absence or presence of compounds (antagonism test); assay type: biochemical; conditions: human brain PFC, in vitro, 10^−5 M
Description: as §1
[^35S]GTPγS binding assays. The incubation buffer for measuring [^35S]GTPγS binding to brain membranes contained, in a total volume of 500 μL, 1 mM EGTA, 3 mM MgCl2, 100 mM NaCl, […], 50 mM Tris-HCl at pH 7.4 and 0.5 nM [^35S]GTPγS. Proteins aliquots were thawed and re-suspended in the same buffer. […] The filters were rinsed twice with 3 mL of ice-cold re-suspension buffer, transferred to vials containing 5 mL. of OptiPhase HiSafe II cocktail (Wallac, UK) and the radioactivity trapped was determined by liquid scintillation spectrometry (Packard 2200CA). […]

[4] = Tail suspension test; assay type: in vivo, rat
From the text: FIG. 4 illustrates the rat tail suspension test for a number of compounds. The tail suspension test has become one of the most widely used models for assessing antidepressant-like activity in mice. The test is based on the fact that animals subjected to the short-term, inescapable stress of being suspended by their tail, will develop an immobile posture. Antidepressant medications reverse the immobility and promote the occurrence of escape-related behaviour.

[5] = tested on: α2-ARs; conditions: J. Med. Chem. 2007 and 2008 studies; cited from earlier work

T1 sequence (P08913 whole entry): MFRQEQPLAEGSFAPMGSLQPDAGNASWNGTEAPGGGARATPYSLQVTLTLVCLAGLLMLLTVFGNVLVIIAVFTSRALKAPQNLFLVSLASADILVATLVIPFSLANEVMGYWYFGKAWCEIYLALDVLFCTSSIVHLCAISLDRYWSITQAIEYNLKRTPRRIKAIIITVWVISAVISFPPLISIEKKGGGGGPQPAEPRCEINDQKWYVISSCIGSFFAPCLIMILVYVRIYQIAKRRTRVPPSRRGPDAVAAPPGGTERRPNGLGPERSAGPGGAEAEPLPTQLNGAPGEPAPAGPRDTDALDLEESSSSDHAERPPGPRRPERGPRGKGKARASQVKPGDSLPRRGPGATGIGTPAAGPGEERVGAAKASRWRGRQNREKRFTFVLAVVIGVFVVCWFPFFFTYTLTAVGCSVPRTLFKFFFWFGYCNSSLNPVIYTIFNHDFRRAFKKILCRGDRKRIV

Row | Structure (SMILES) | stimulation of [35S]GTPγS binding (agonist dose-response plot) [2] | Emax [2] [%] | Emax ([2]; read-out: Emax (%)) [%] | further results
1 | COC1(C2=NCCN2)COc2ccccc2O1 (stereo not shown) [RX821002, 2-methoxy-idazoxan, reference compound] |  |  |  | Emax, extracellular NA levels ([1]; percentages of basal values): 290±35%
2 | CCNc1ccc(NC(=N)N)cc1 [Compound 8b, N-(4-ethylamino-phenyl)-guanidine] | did not stimulate binding of [^35S]GTPγS |  |  | nature at α2-ARs from shift of UK14304 EC50 [3]: behaves as an antagonist; ability to cross the blood brain barrier (BBB) ([1]; inferred from NA increase after intraperitoneal administration): ability of the compound to cross the blood brain barrier; increase of NA extracellular concentration ([1]; intraperitoneal 10 mg/kg, PFC, percentages of basal values): 161±30%; Emax, extracellular NA levels ([1]; percentages of basal values): 304±54%; performance against fluoxetine ([4]; 8b 10 mg/kg vs fluoxetine 40 mg/kg): vastly outperforms; time in immobile posture ([4]; FIG. 4, against all other compounds tested): shortest length of time
3 | CCNc1ccc(NC2=NCCN2)cc1 [Compound 5b, N-ethyl-N′-imidazolidin-2-ylidene-benzene-1,4-diamine] | stimulated binding of [^35S]GTPγS | 95 |  | 
4 | CCN(C)c1ccc(NC(=N)N)cc1 [Compound 9b, N-[4-(ethyl-methyl-amino)-phenyl]-guanidine] | stimulated binding of [^35S]GTPγS |  | 92 | 
5 | CNc1ccc(NC2=NCCN2)cc1 [Compound 4b, N-imidazolidin-2-ylidene-N′-methyl-benzene-1,4-diamine] | stimulated binding of [^35S]GTPγS | 98 |  | 
6 | c1cc2c(cc1NC1=NCCN1)OCO2 [5′] |  |  |  | behaviour at α2-ARs [5]: antagonist behaviour
7 | CCN(C)c1ccc(NC2=NCCN2)cc1 [Compound 6b, N-Ethyl-N′-imidazolidin-2-ylidene-N-methyl-benzene-1,4-diamine] | stimulated binding of [^35S]GTPγS | 103 |  | 
8 | CNc1ccc(NC(=N)N)cc1 [Compound 7b, N-(4-methylamino-phenyl)-guanidine] | stimulated binding of [^35S]GTPγS |  | 87 | 
9 | CCN(CC)c1ccc(NC(=N)N)cc1 [Compound 17, reference compound] | stimulated binding of [^35S]GTPγS |  | 89 | 
10 | N=C(N)Nc1ccc2c(c1)CCCC2 [6′] |  |  |  | behaviour at α2-ARs [5]: antagonist behaviour
